Measurements reported in patent publication US20060223994A1, “Novel polymorph of Quetiapine fumarate and a process for its preparation” (Divi's Laboratories Limited, priority 2005, published 2006).

Assays:
[1] = Stability on melting and cooling (air; NMR, IR, HPLC comparison)
[2] = Stability of Form IV under grinding (powder XRD and FT-IR after grinding); settings: ground in glass pestle and mortar for 15 min

chemical nature after heating ([1]; confirmed by NMR, IR, HPLC retention time and assay versus sample prepared per U.S. Pat. No. 4,879,288): does not also alter its chemical nature | oxidative degradation on melting and cooling ([1]; melting and cooling in air): no significant degradation | XRD pattern and FT-IR spectrum of the material after grinding [2]: identical to the form IV
Compound: OCCOCCN1CCN(C2=Nc3ccccc3Sc3ccccc32)CC1 [Form IV]
